Measured values reported in the NIST ThermoML archive (doi:10.1016/j.fluid.2008.02.005).

Tests used:
[1] = 101.33 kPa, Liquid
[2] = xn = mol fraction of the nth substance listed; conditions: 101 kPa, Liquid

CCCCCO [pentan-1-ol]
[1]
Conditions | mass density [kg/m3]
288.15 K | 818.336
298.15 K | 811.001
308.15 K | 803.302

CCCCCCCO [heptan-1-ol]
[1]
Conditions | mass density [kg/m3]
288.15 K | 825.943
298.15 K | 818.789
308.15 K | 812.385

CCCCCCOCCOCCO [2-(2-hexyloxyethoxy)ethanol] + CCCO
mass density [kg/m3], [2]
Conditions | 288.15 K | 298.15 K | 308.15 K
x1 = 0.1085 | 837.518 | 829.325 | 820.919
x1 = 0.1608 | 848.615 | 840.381 | 831.968
x1 = 0.2102 | 857.751 | 849.425 | 841.022
x1 = 0.2477 | 863.891 | 855.521 | 847.161
x1 = 0.2972 | 871.227 | 862.829 | 854.397
x1 = 0.3493 | 878.129 | 869.65 | 861.101
x1 = 0.4048 | 884.6 | 876.088 | 867.464
x1 = 0.46 | 890.404 | 881.84 | 873.153
x1 = 0.5003 | 894.261 | 885.64 | 876.925
x1 = 0.5584 | 899.282 | 890.668 | 881.873
x1 = 0.6066 | 903.088 | 894.428 | 885.633
x1 = 0.6604 | 906.948 | 898.225 | 889.461
x1 = 0.6964 | 909.32 | 900.561 | 891.847
x1 = 0.7532 | 912.745 | 903.981 | 895.267
x1 = 0.8054 | 915.595 | 906.826 | 898.1
x1 = 0.8563 | 918.152 | 909.394 | 900.587
x1 = 0.9044 | 920.357 | 911.598 | 902.735
x1 = 0.9593 | 922.69 | 913.937 | 905.015

CCCCCCOCCOCCO [2-(2-hexyloxyethoxy)ethanol]
[1]
Conditions | mass density [kg/m3]
288.15 K | 924.348
298.15 K | 915.522
308.15 K | 906.642

CCCCCCOCCOCCO [2-(2-hexyloxyethoxy)ethanol] + CCCCCCCO
mass density [kg/m3], [2]
Conditions | 288.15 K | 298.15 K | 308.15 K
x1 = 0.1109 | 840.489 | 833.182 | 825.922
x1 = 0.1592 | 846.447 | 839.091 | 831.645
x1 = 0.1986 | 851.154 | 843.756 | 836.178
x1 = 0.258 | 857.994 | 850.491 | 842.797
x1 = 0.3094 | 863.644 | 856.08 | 848.254
x1 = 0.3515 | 868.149 | 860.468 | 852.588
x1 = 0.3927 | 872.418 | 864.636 | 856.716
x1 = 0.4463 | 877.834 | 869.912 | 861.89
x1 = 0.5084 | 883.872 | 875.796 | 867.692
x1 = 0.5574 | 888.492 | 880.349 | 872.159
x1 = 0.6167 | 893.921 | 885.645 | 877.389
x1 = 0.6511 | 896.97 | 888.674 | 880.331
x1 = 0.7101 | 902.042 | 893.703 | 885.279
x1 = 0.7491 | 905.269 | 896.923 | 888.446
x1 = 0.8085 | 910.029 | 901.658 | 893.122
x1 = 0.8543 | 913.588 | 905.198 | 896.613
x1 = 0.9087 | 917.663 | 909.197 | 900.531
x1 = 0.9487 | 920.583 | 912.028 | 903.307
